We go through 7 molecules from US7498292B2, “Combinatorial libraries of autoinducer analogs, autoinducer agonists and antagonists, and methods of use thereof” (The Research Foundation of State University of New York, priority 2002, dated 2009).

Assay [1] deals with PAO-JP2 (pTdK-GFP) biofilm. The assay is described as follows: static biofilm assay, PAO-JP2 (pTdK-GFP). The format is cell-based, P. aeruginosa. Particulars: PAO-JP2 (pTdK-GFP) with exogenous AIs, 24-hour static assay. The procedure: (§1) Compound 3 was tested for its effect on biofilm development in a 24-hour assay that looks at the early stages of biofilm formation. […] Cultures were grown at 37° C. with shaking for 30 minutes, and then allowed to sit at 37° C. for an additional 23.5 hours. Coverslips were then rinsed and placed on slides for visualization using an MRC1024 Laser Scanning Microscope (BioRad) with a Nikon Fluor-60X oil emersion objective lens (NA=1.4), 488 nm Argon Laser and OG515 filter.

Assay [2] has as its system Elastase B. The assay is described as follows: elastase (Elastin Congo Red) assay, wild type strain PAO1. The note with it: wild type PAO1, no exogenous autoinducers. The format is cell-based, P. aeruginosa PAO1. The procedure: (§2) Pyocyanin, elastase, and biofilm were assayed as previously described (Smith et al., Chem. Biol. 10:81-89 (2003), which is hereby incorporated by reference in its entirety). Elastase activity produced by P. aeruginosa in the presence of AIs and competing 3-oxo-C12-D10 was determined by measuring breakdown of the substrate Elastin Congo Red.
(§3) For the elastase B assay, cells (PAO-JP2) were grown overnight in PTSB media (5% Peptone, 0.1% Tryptic Soy Broth) at 37° C., washed and diluted to an OD600 of 0.05, grown to mid-log phase, washed again, and re-suspended to an OD600 of 0.05. The culture was then added to test tubes containing test compound(s) and grown for 6 hours. Elastase B activity was quantified by incubation of 100 μl of filtered culture supernatant with 5 mg Elastin Congo Red substrate and 1 ml of 10 mM Tris pH 7.2, 1 mM CaCl2 for 6 hours at 37° C. with agitation. Elastase B activity is represented by the OD495 of the enzyme assay following reaction quenching with EDTA and centrifugation to remove unreacted substrate, divided by the OD600 of the cell culture. The same assay was run with strain PAO-1, however no exogenous autoinducers were added.

Assay [3] concerns pyocyanin. Description: pyocyanin assay, wild type strain PAO1. In kind it is cell-based, P. aeruginosa PAO1. Particulars: wild type PAO1, no AIs added. The protocol: (§4) For the pyocyanin assay, cells were grown overnight in LB then washed in fresh media and diluted to an OD600 of 0.05. This culture was grown for 3-4 hours to mid-log phase (OD600 of 0.3-0.5), then diluted to an OD600 of 0.05, and aliquoted to test tubes containing an appropriate amount of test compound(s). Following 18 hours of growth, pyocyanin was extracted from filtered culture supernatants and quantified using standard methods (Essar et al., J. Bacteriol. 172:884-900 (1990), which is hereby incorporated by reference in its entirety).

The test system of assay [4] is Elastase B. Description: elastase (Elastin Congo Red) assay, strain PAO-JP2. The format is cell-based, P. aeruginosa PAO-JP2. The note with it: PAO-JP2, 10-100 μM compound, competing against 5 μM AI1 and 10 μM AI2. The protocol: as §2, §3
For a further assay, the system named is PAO1 (pTdK-GFP) biofilm. The assay is described as follows: static biofilm assay, PAO1 (pTdK-GFP). The format is cell-based, P. aeruginosa. The procedure:
as §1
The same assay was run with strain PAO-1 (pTdK-GFP), and no exogenous autoinducers were added. […] The above results provide additional evidence that compound 3 interferes with QS signaling and reduces the production of important virulence factors.

The subject of assay [5] is pyocyanin. Description: pyocyanin assay, strain PAO-JP2. In kind it is cell-based, P. aeruginosa PAO-JP2. Particulars: PAO-JP2, 25 μM each of AI1 and AI2, 18 hours. The protocol: as §4
Assay [6] relates to RhlR. The assay is described as follows: rhlI-gfp reporter antagonist assay, PAO-JP2 (prhlI-LVAgfp). Particulars: competing against 1 μM AI1 and 10 μM AI2. The format is cell-based, P. aeruginosa. The procedure:
Each compound in the library was tested for antagonist activity using the same reporter strain, PAO-JP2 (plasI-LVAgfp) (de Kievit et al., Appl. Environ. Microbiol. 67:865-1873 (2001), which is hereby incorporated by reference in its entirety) to find compounds that could compete against AI1 and reduce GFP expression. The methods were the same as described in Example 2 (GFP Reporter Assay), except that 1 μM AI1 was added to each well in combination with the library compound. The fluorescence/OD600 of each compound competing against AI1 was reported relative to the fluorescence/OD600 of the positive control of AI1 alone, which was set to 1. When strain PAO-JP2 (prhlI-LVAgfp) was used, the positive control was 1 μM AI1 and 10 μM AI2.
3- oxo-C12-D10 was synthesized in solution phase, where the natural side chain was coupled with D10 and purified by chromatography. To determine if the same structural motif can be applied to inhibition of the RhlR-AI2 interaction, C4-D10 was also synthesized. Assays were performed with both the lasI-gfp reporter PAO-JP2 (plasI-LVAgfp) and an RhlR-AI2 controlled rhlI-gfp reporter, PAO-JP2 (prhlI-LVAgfp) (FIGS. 10A-C) (de Kievit et al., Appl. Environ. Microbiol. 67:865-1873 (2001), which is hereby incorporated by reference in its entirety).
(§5) Reporter strains were grown overnight in LB plus 300 μg/ml carbenicillin at 37° C. and diluted to an OD600 of 0.1. Following an incubation of 1 hour, 200 μl of cell culture was added to individual wells of a 96 well plate containing appropriate amount of test compound(s). Plates were incubated for 6 hours and then scanned for fluorescence emission with a Molecular Imager (488 nm excitation and 695 nm bandpass filter). Fluorescence was quantified with ImageQuant software.
Next the ability of 2 and 3 to inhibit the rhlI-gfp reporter strain PAO-JP2 (prhlI-LVAgfp) was tested, since this expression is also AI1-dependent.

Assay [7] deals with T1, LasR (Pseudomonas aeruginosa, UniProt P25084).
T1 construct: endogenous in cells; host or cells: P. aeruginosa PAO-JP2 (lasI, rhlI) harboring plasI-LVAgfp
Description: lasI-gfp reporter antagonist (competition against AI1) assay, PAO-JP2 (plasI-LVAgfp). The format is cell-based, P. aeruginosa. The note with it: for reduction of GFP expression (lasI-gfp): 1 μM AI1. The procedure:
(§6) P. aeruginosa strain PAO-JP2 (lasI, rhlI) (Rahme et al., Science 268:1899-1902 (1995), which is hereby incorporated by reference in its entirety) harboring plasI-LVAgfp (Pearson et al., Proc. Natl Acad. Sci. USA 91:197-201 (1994), which is hereby incorporated by reference in its entirety) was grown at 37° C. in LB with 300 μg/ml carbenicillin. For agonist assays, an overnight culture was diluted to an OD600 of 0.1 and transferred to wells of a 96-well plate on which test compounds had previously been added and dried. The final concentration of each analog tested was roughly 400 μM, although this is an overestimate due to purity issues. Cells were then incubated for 6 hours at 37° C. with vigorous shaking. GFP expression was detected with a Molecular Imager (BioRad) (488 nm excitation and 695 nm bandpass filter) and quantified with ImageQuant software. The OD600 of cultures was determined to normalize GFP expression to cell density.
The methods were the same as described in Example 2 (GFP Reporter Assay), except that 1 μM AI1 was added to each well in combination with the library compound. The fluorescence/OD600 of each compound competing against AI1 was reported relative to the fluorescence/OD600 of the positive control of AI1 alone, which was set to 1. When strain PAO-JP2 (prhlI-LVAgfp) was used, the positive control was 1 μM AI1 and 10 μM AI2. Eight compounds that inhibited reporter gene expression by greater than 50% were identified (see, e.g., FIG. 6).
as §5

Assay [8] deals with T2, RhlR (Pseudomonas aeruginosa, UniProt P54292).
T2 construct: an RhlR-AI2 controlled rhlI-gfp reporter, PAO-JP2 (prhlI-LVAgfp); endogenous in cells; host or cells: P. aeruginosa PAO-JP2 (prhlI-LVAgfp)
The format is cell-based, P. aeruginosa. The note with it: for AI2 agonist activity (induction of rhlI-gfp reporter): in the presence of 1 μM AI1, 10, 100, 400 μM analog. The protocol: Thus, it was hypothesized that a 5- or 6-membered ring with a keto or hydroxyl group (or other hydrogen bond acceptor) adjacent to the amine is sufficient for both binding and activation of LasR. To test this hypothesis, the series of molecules shown in FIG. 13 (compounds 14) was synthesized.
as §5
The C4 compounds (A12 and 5-8) were analyzed for agonist activity using PAO-JP2 (prhlI-LVAgfp) (FIGS. 14C and D). Induction of GFP expression in this reporter requires addition of both AI1 and AI2. The AI2 control and agonist assays, therefore, were performed in the presence of 1 μM AI1 and increasing concentrations of AI2 or analog (FIGS. 14C and D).

The target of assay [9] is T1, LasR. The assay is described as follows: lasI-gfp reporter agonist assay, PAO-JP2 (plasI-LVAgfp). The format is cell-based, P. aeruginosa. The note with it: for agonist activity (induction of lasI-gfp reporter): PAO-JP2 (plasI-LVAgfp), compounds made in solution phase, increasing concentrations (1, 100, 400 μM).
Text: Since this strain lacks the ability to produce natural AIs due to disruption of both AI synthase genes, activation of LasR relies on the addition of exogenous AI1. Expression of gfp (encoding green fluorescent protein) is under control of the LasR-AI1 inducible lasI promoter, allowing rapid screening for LasR agonists by measuring the level of GFP expression in their presence.
as §6, §5

In assay [10] the target is T1, LasR. Description: lasB-lacZ reporter assay, E. coli MG4 (pKDT37). The format is cell-based, P. aeruginosa. The protocol:
E. coli strain MG4 (pKDT37) was grown overnight in Supplemented A media with 100 μg/mL ampicillin at 30° C. and diluted 1:100 in the same media. 1 mL of this culture was added to a test tube containing AI1 or 3-oxo-C12-D12 that had been previously aliquoted and dried. Following a 6 hour incubation at 30° C., β-galactosidase activity was determined using standard methods (Platt et al., Assays of the lac operon Enzymes In: Experiments in Molecular Genetics, Cold Spring Harbor Laboratory Press, Cold Spring Harbor, N.Y., pp. 352-355 (1972), which is hereby incorporated by reference in its entirety).
One of the new agonist structures identified from the library, D12, is 2-aminocyclohexanol (FIG. 5B). […] 3-oxo-C12-D12, containing the natural side chain, was synthesized in solution phase, and tested with both the lasI-gfp reporter as well as a lasB-lacZ reporter in Escherichia coli. E. coli strain MG4 harboring plasmid pKDT37 expresses lasR and contains a lacZ reporter gene controlled by a LasR-AI1 inducible lasB promoter (Passador et al., J. Bacteriol. 178:5995-6000 (1996), which is hereby incorporated by reference in its entirety). […] It also provides strong evidence that the agonist activity in P. aeruginosa is LasR dependent.
A general note: In a reporter assay the amount or activity of a reporter protein is the signal.

Entries after “also recorded” stand apart in the source; their conditions may differ. Like-named read-outs stand apart in the source and are kept apart here.

T2 sequence (P54292 whole entry): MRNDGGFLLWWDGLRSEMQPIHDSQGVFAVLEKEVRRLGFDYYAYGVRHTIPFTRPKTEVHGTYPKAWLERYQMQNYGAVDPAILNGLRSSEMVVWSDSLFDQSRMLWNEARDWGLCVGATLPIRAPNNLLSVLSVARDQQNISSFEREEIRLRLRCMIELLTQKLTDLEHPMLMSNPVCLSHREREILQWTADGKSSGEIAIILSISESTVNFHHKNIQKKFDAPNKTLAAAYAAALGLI
T1 sequence (P25084 whole entry): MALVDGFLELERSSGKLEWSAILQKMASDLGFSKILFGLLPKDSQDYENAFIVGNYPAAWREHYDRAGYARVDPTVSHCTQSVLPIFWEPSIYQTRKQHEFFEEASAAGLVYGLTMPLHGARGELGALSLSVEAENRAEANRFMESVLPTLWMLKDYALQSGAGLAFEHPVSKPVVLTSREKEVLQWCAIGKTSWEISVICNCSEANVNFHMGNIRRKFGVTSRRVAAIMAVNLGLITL

`CCCCCCCCCC(=O)CC(=O)Nc1ccccc1O` [3-oxo-C12-D10]: the “effect on biofilm formation” value is “slightly enhanced rather than inhibited” in [1] and “did not interfere with biofilm formation” with PAO1 (pTdK-GFP) biofilm (wild type PAO1, no exogenous autoinducers). The “effect on elastase activity” value in the assay with Elastase B [2] is on record as “reduced elastase activity”. Also, the “effect on pyocyanin production” value in the assay on pyocyanin [3] and in the assay with pyocyanin [5] was “not able to interfere with pyocyanin production” in each case. Besides, in the assay with Elastase B [4], the “reduction of elastase activity” value was “approximately 50%”. The “effect on biofilm morphology” value in the assay with PAO1 (pTdK-GFP) biofilm (wild type PAO1) is reported as “fluffy”. In the assay with RhlR [6] (50 μM compound), the “inhibition of GFP expression (rhlI-gfp)” value was “more than 80%”. On LasR [7], the “las circuit inhibition, comparison of potency” value is recorded as “more potent than 3”. Moreover, the “reduction of GFP expression (lasI-gfp)” value was “approximately 60%” on LasR [7] (10 μM compound) and around 90% on LasR [7] (100 μM compound).

As for `CCCC(=O)NC1CCCCC1=O` (stereo not shown) [Compound 7, N-2-oxocyclohexylbutanamide], the “AI2 agonist activity (induction of rhlI-gfp reporter)” value (from here on “AI2 agonist activity”) at RhlR [8] is given as “strong agonist activity”.

In the case of `CCCC(=O)N[C@@H]1CCCC[C@H]1O` (relative stereo) [Compound 8, N-(trans-2-hydroxy)cyclohexylbutanamide], on RhlR [8] (400 μM analog, 1 μM AI1), the “GFP expression (rhlI-gfp)” value is reported as “moderate GFP expression”. Moreover, at RhlR [8], the “AI2 agonist activity” value is “very little AI2 agonist activity”.

`CCCCCCCCCC(=O)CC(=O)N[C@@H]1CCCC[C@H]1O` (relative stereo) [Compound 4, N-(trans-2-hydroxycyclohexyl)-3-oxododecanamide]: the figures for the “agonist activity (induction of lasI-gfp reporter)” value on LasR [9] and on LasR [9] (listed as 3-oxo-C12-D12) were “strong agonist activity; also recorded: strongest agonist” and “activated”, respectively. For the same molecule, the “GFP induction, fold less than AI1” value on LasR [9] (at 1 μM) came to 2 fold. Further, the “GFP induction compared with AI1” value on LasR [9] (at higher concentrations (100, 400 μM)) was “comparable to AI1”. Besides, on LasR [10] (E. coli MG4 (pKDT37), 6 hour incubation), the “lasB-lacZ reporter activation (beta-galactosidase activity)” value is on record as “activated”. The “LasR inducing activity compared with natural AI1” value at LasR [10] (lasI-gfp and lasB-lacZ reporters (FIG. 9)) is listed as “comparable to the natural AI1”.

With `CCCC(=O)NC1CCCC1=O` (stereo not shown) [Compound 5, N-2-oxocyclopentylbutanamide], the “AI2 agonist activity” value on RhlR [8] is recorded as “strong agonist activity”.

As to `CCCCCCCCCC(=O)CC(=O)NC1CCCC1=O` (stereo not shown) [Compound 1, N-(2-oxocyclopentyl)-3-oxododecanamide], on LasR [9], the “agonist activity (induction of lasI-gfp reporter)” value is on record as “able to induce the reporter only at a very high concentration; also recorded: weak agonist”.

Regarding `CCCC(=O)N[C@@H]1CCC[C@H]1O` (relative stereo) [Compound 6, N-(trans-2-hydroxy)cyclopentylbutanamide], the entries for the “AI2 agonist activity” value at RhlR [8] and on RhlR [8] (listed as C4-(2-aminocylcopentanol)) were “no agonist activity” and “could not activate RhlR”, respectively. Besides, the “antagonist activity on rhlI-gfp reporter” value in the assay on RhlR [6] is listed as “no inhibition”.
